One test has as its target T1, human thrombopoietin receptor (c-mpl) (Homo sapiens, UniProt P40238).
T1 construct: expressed in transfected cells
T1 sequence (P40238 26-635): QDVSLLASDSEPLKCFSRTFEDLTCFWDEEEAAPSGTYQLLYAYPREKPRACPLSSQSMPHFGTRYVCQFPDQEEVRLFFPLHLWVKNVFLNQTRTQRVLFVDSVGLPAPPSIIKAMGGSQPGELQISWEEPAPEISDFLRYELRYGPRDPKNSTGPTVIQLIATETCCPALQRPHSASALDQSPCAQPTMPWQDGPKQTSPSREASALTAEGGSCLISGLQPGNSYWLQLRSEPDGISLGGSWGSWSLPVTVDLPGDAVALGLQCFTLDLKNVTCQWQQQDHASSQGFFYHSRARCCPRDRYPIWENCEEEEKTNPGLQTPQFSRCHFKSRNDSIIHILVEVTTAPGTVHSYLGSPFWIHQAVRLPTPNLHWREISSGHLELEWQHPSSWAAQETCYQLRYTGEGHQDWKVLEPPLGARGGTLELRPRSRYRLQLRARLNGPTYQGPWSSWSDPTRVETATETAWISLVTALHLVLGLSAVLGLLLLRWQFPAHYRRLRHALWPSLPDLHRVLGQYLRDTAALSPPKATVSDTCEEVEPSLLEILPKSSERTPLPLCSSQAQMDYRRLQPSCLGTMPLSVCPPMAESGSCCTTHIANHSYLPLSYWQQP
Nature of the test: Stimulation of proliferation of thrombopoietin-dependent cell line UT7/EPO-mpl (WST-8). Format: cell-based. To be noted: UT7/EPO-mpl cells. Here is the method:
The responses of thrombopoietin receptor to the compounds of Synthetic Examples of the present invention were assayed using a human leukemic cell line, UT7/EPO-mpl.
(§1) UT7/EPO-mpl is a stable transformed cell line obtained by introducing into human leukemic cell line UT7/EPO a vector that induces expression of human thrombopoietin receptor (c-mpl) under control of cytomegalovirus immediate-early promoter by the method of Takatoku et al. (J. Biol. Chem., 272:7259-7263 (1997)). […] These two cell lines were subcultured in IMDM (Invitrogen) containing 10% fetal bovine serum (Thermo Electron or BioWest) using a CO2 incubator (5% CO2, 37° C.).
(§2) The subcultured cells described above were washed twice with PBS and suspended in IMDM containing 10% fetal bovine serum at a cell density of 6×10^4 cells/ml. The cell suspension was transferred to a 96-well tissue culture plate (CORNING) in 100-μl aliquots. Then either thrombopoietin (Pepro Tech EC) or the compound of Synthetic Examples dissolved in dimethyl sulfoxide were diluted 83-fold with IMDM containing 10% fetal bovine serum and added to the aforementioned cell suspension in 20-μl aliquots. The cell suspension was incubated in a CO2 incubator (5% CO2, 37° C.) for 4 days. Cell proliferation was assayed using WST-8 reagent (Kishida Chemical Co., Ltd.) according to instructions by the manufacturer. A 10-μl aliquot of 5 mM WST-8 reagent solution was added to each well of the tissue culture plate, and the plate was incubated at 37° C. for 4 hours. The formazan pigment generated was detected by measuring the absorbance at 450 nm with a 96-well microplate reader (Nihon Molecular Devices, Spectramax 190).
(Tetrazolium dyes change colour on reduction, which living cells bring about.)
Turning to “TPO: thrombopoietin (Pepro Tech EC), a cytokine consisting of 332 amino acids”, the “Proliferation of thrombopoietin-responsive UT7/EPO-mpl cells” value is reported as “stimulated”.

Still in this test, the particulars now being: concentration yielding growth rate corresponding to 50% of growth of UT-7/EPO-mpl in the presence of 10 ng/mL TPO; 4 days incubation, WST-8.
In the case of `C/C(=N\NC(=S)Nc1ccc(-c2nnn[nH]2)cc1)c1csc(-c2ccc3c(c2)CCC3)c1O` [compound 64], the EC50 – broadly, the midpoint of the concentration-response curve – is 4.42 nM.
On to `C/C(=N\NC(=S)Nc1cccc(-c2nnn[nH]2)c1)c1csc(-c2ccc3c(c2)CCO3)c1O` [compound 65], for which the concentration for a half-maximal effect (EC50) was 5.65 nM.
Still for that read-out and setting: in the case of `C/C(=N\NC(=S)Nc1ccc(-c2nnn[nH]2)cc1)c1csc(-c2ccc3c(c2)CCO3)c1O` [compound 66] it was 8.79 nM; in that of `C/C(=N\NC(=O)c1ccc(-c2nnn[nH]2)cc1)c1csc(-c2ccc3c(c2)CCCC3)c1O` [compound 67], 5.23 nM; in that of `C/C(=N\NC(=O)c1ccc(-c2nnn[nH]2)cc1)c1csc(-c2ccc3c(c2)CCC3)c1O` [compound 68], 22.5 nM.
Same read-out and setting: next, `C/C(=N\NC(=O)c1ccc(C(=O)NCc2ccc(C(=O)NCCO)cc2)s1)c1csc(-c2ccc3c(c2)CCCC3)c1O` [compound 69]: 0.357 nM.
Still for that read-out and setting: in the case of `C/C(=N\NC(=O)c1ccc(C(=O)NCc2ccc(C(=O)NCCO)cc2)s1)c1csc(-c2ccc3c(c2)CCC3)c1O` [compound 70] it was 0.382 nM.
For `C/C(=N\NC(=O)c1ccc(C(=O)NCc2ccc(C(=O)NCCO)cc2)s1)c1csc(-c2ccc3c(c2)CCO3)c1O` [compound 71], the EC50 was 3.97 nM.

The next test relates to UT7/EPO. Nature of the test: Proliferation of mother cell line UT7/EPO (no c-mpl). It counts as cell-based, human. To be noted: UT7/EPO cells without c-mpl. The protocol: as §1
as §2, with “A 10-μl aliquot of 5 mM WST-8 reagent solution was added to each well of the tissue culture plate, and the plate was incubated at 37° C. for 4 hours.” left out
On to “TPO: thrombopoietin (Pepro Tech EC), a cytokine consisting of 332 amino acids”, for which the “Effect on proliferation of UT7/EPO, the mother cell line” value was “no response”.

For the origin of these results see patent US8889732B2, “Fused heterocyclic compounds and thrombopoietin receptor activators” (Nissan Chemical Industries, Ltd., priority 2009, dated 2014).
